Measurements reported in patent US20250179059A1 (The Regents of the University of California, priority 2021, published 2025).
Like-named read-outs stand apart in the source and are kept apart here.

How the values were obtained:
[1] = test system: human SKM-1 acute myeloid leukemia cells; test: SKM-1 antiproliferation cell-based assay (ATPlite); conditions: Homo sapiens
Procedure, shortened: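 Log-phase cells in RPMI 1640/15% FBS were seeded at 34722 cells/mL and exposed for 4 days to nine-concentration DMSO serial dilutions in triplicate. Viability was read as ATP luminescence (ATPlite 1step), and IC50 values came from variable-slope non-linear regression.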

human BRD4 bromodomain I = biological target: T1, human BRD4 bromodomain I (Homo sapiens, UniProt O60885); test: Bromodomain binding assay (AlphaScreen), BRD4 BDI; conditions: Table C1
T1 construct: human BRD4 bromodomain I [residues 44-170]; host or cells: E. coli
Experimental: Bromodomain Binding Assay
The bromodomain binding assay utilizes AlphaScreen technology. Compounds compete with a biotinylated peptide ligand (from histone H4: aa 1-21, K5/K8/K12/K16Ac-biotin) for binding to a hexahistidine (His6)-tagged bromodomain. Peptide binding is detected by fluorescence signal after singlet oxygen energy transfer from peptide-bound AlphaScreen streptavidin-coated donor beads to His6-tagged bromodomain-bound nickel-chelate acceptor beads (PerkinElmer). Briefly, 8 μL 2.5× bromodomain (E. coli expressed, N-terminal His6-tagged human BRD4 bromodomain II [based on Genbank NM_058243, residues 349-460] or N-terminal His6-tagged human BRD4 bromodomain I [residues 44-170]) in reaction buffer (50 mM HEPES [pH 7.5], 100 mM NaCl, 0.05% CHAPS, 0.1% BSA, 1% DMSO) is added to wells of an assay plate (384-well low flange white, flat bottom, polystyrene microplate, Corning #3572; buffer only is added to some wells as a negative control). A compound concentration series (10 concentrations, 3-fold serial dilutions previously prepared in 100% DMSO, or 100% DMSO only negative control) is delivered to the assay plate with an Echo 550 acoustic liquid handler (Labcyte), followed by plate centrifugation and incubation for 30 minutes at room temperature. Then 4 μL 5× biotinylated peptide ligand is added, followed by plate centrifugation and gentle shaking for 30 minutes at room temperature to mix. After this incubation, 4 μL 5× donor beads are added, and the plate is centrifuged, followed by brief gentle shaking to mix. Finally, 4 μL 5× acceptor beads are added, and the plate is centrifuged, followed by gentle shaking for 60 minutes at room temperature in the dark. AlphaScreen signal (excitation/emission: 680 nm/520-620 nm) is detected with an EnSpire multimode plate reader (PerkinElmer). Percentage peptide binding is plotted as a function of concentration, and curve fitting is used to determine competitive compound binding ICsos.

[2] = biological target: T2, human BRD4 bromodomain II (Homo sapiens, UniProt O60885); test: Bromodomain binding assay (AlphaScreen), BRD4 BDII
T2 construct: human BRD4 bromodomain II [based on Genbank NM_058243, residues 349-460]; host or cells: E. coli
Procedure, shortened: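 First, His6-tagged BRD4 bromodomain (BDI residues 44-170 or BDII residues 349-460) is incubated with compound for 30 min at room temperature. Next the biotinylated H4 peptide is added for 30 min, then donor and acceptor beads, with 60 min in the dark before AlphaScreen reading and IC50 fitting.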

[3] = SKM-1, 96 h, SKM-1 antiproliferation assay, 4 days, Table C2
[4] = AlphaScreen assay, Table C1, read-out: BRD4 BDII IC50
[5] = AlphaScreen assay, Table C2, read-out: BRD4 BDII IC50
[6] = SKM-1, SKM-1 antiproliferation assay
[7] = BRD4 BDII AlphaScreen assay, read-out: BRD4 BD2 IC50

| Compound | GI50 [1, 3] [nM] | IC50 (human BRD4 bromodomain I) [nM] | IC50 [2, 4] [nM] | IC50 [2, 5] [nM] | GI50 [1, 6] [nM] | IC50 [2, 7] [nM] |
| --- | --- | --- | --- | --- | --- | --- |
| Cn1ccn(-c2ccc(-c3cc(F)cc(-c4cc(N5CC6CC5CN6)c5cn[nH]c5c4)c3O)cc2Cl)c1=O (centres unmarked) [Example 599, 1-(3′-(4-(2,5-diazabicyclo[2.2.1]heptan-2-yl)-1H-indazol-6-yl)-3-chloro-5′-fluoro-2′-hydroxy-[1,1′-biphenyl]-4-yl)-3-methyl-1H-imidazol-2(3H)-one] | 30 to 300 |  |  | 1 to 10 |  |  |
| Cn1ccn(-c2ccc(-c3cc(F)cc(-c4cccc(-c5ccc(CN)cc5)c4)c3O)cc2Cl)c1=O [Example 863] |  |  |  |  | 300 to 3000 | 10 to 100 |
| CCc1ncc(-c2cc(F)cc(-c3ccc(-n4ccn(C)c4=O)c(Cl)c3)c2O)cc1N1CC[C@@](C)(O)C1 [Example 852, (R)-1-(3-Chloro-3′-(6-ethyl-5-(3-hydroxy-3-methylpyrrolidin-1-yl)pyridin-3-yl)-5′-fluoro-2′-hydroxy-[1,1′-biphenyl]-4-yl)-3-methyl-1H-imidazol-2(3H)-one] |  |  |  |  | 0.3 to 30 | 0.01 to 1 |
| CC(C)N1CCN(c2cc(-c3cc(F)cc(-c4ccc(-n5ccn(C)c5=O)c(Cl)c4)c3O)cc(=O)n2C)CC1 [Example 717, 4-(3′-chloro-5-fluoro-2-hydroxy-4′-(3-methyl-2-oxo-2,3-dihydro-1H-imidazol-1-yl)-[1,1′-biphenyl]-3-yl)-6-(4-isopropylpiperazin-1-yl)-1-methylpyridin-2(1H)-one] | 0.3 to 30 |  |  | 0.01 to 1 |  |  |
| Cn1ccn(-c2ccc(-c3cc(F)cc(-c4cc(N5CCN6CCCCC6C5)c5cnn(C)c5c4)c3O)cc2Cl)c1=O (centres unmarked) [Example 609, 1-(3-chloro-5′-fluoro-3′-(4-(hexahydro-1H-pyrido[1,2-a]pyrazin-2(6H)-yl)-1-methyl-1H-indazol-6-yl)-2′-hydroxy-[1,1′-biphenyl]-4-yl)-3-methyl-1H-imidazol-2(3H)-one] | 0.3 to 30 |  |  | 0.01 to 1 |  |  |
| COc1ncc(-c2cc(F)cc(-c3ccc(-n4c(C)cn(C)c4=O)c(Cl)c3)c2O)cc1N1CCN(C(C)(C)C)CC1 [Example 941, 3-(3′-(5-(4-(tert-butyl)piperazin-1-yl)-6-methoxypyridin-3-yl)-3-chloro-5′-fluoro-2′-hydroxy-[1,1′-biphenyl]-4-yl)-1,4-dimethyl-1H-imidazol-2(3H)-one] |  |  |  |  | 0.3 to 30 | 1 to 10 |
| Cc1cc(-c2cc(F)cc(-c3cccc(N4CCN(C(C)(C)C)CC4)c3)c2O)ncc1-n1ccn(C)c1=O [Example 940, 1-(6-(3′-(4-(tert-butyl)piperazin-1-yl)-5-fluoro-2-hydroxy-[1,1′-biphenyl]-3-yl)-4-methylpyridin-3-yl)-3-methyl-1H-imidazol-2(3H)-one] |  |  |  |  | 300 to 3000 | > 100 |
| CC(C)N1CCN(c2cc(-c3cc(F)cc(-c4ccc(-n5ccn(C)c5=O)c(Cl)c4)c3O)cn3ccnc23)CC1 [Example 670, 1-(3-chloro-5′-fluoro-2′-hydroxy-3′-(8-(4-isopropylpiperazin-1-yl)imidazo[1,2-a]pyridin-6-yl)-[1,1′-biphenyl]-4-yl)-3-methyl-1H-imidazol-2(3H)-one] | 0.3 to 30 |  |  | 0.01 to 1 |  |  |
| Cc1ncc(-c2cc(F)cc(-c3ccc(-n4ccn(C)c4=O)c(Cl)c3)c2O)cc1N1CC[C@]2(CCCN2C(C)C)C1 [Example 956, (R)-1-(3-chloro-5′-fluoro-2′-hydroxy-3′-(5-(1-isopropyl-1,7-diazaspiro[4.4]nonan-7-yl)-6-methylpyridin-3-yl)-[1,1′-biphenyl]-4-yl)-3-methyl-1,3-dihydro-2H-imidazol-2-one] |  |  |  |  | 0.3 to 30 | 1 to 10 |

Results, then the compound that gave them:

| GI50 [1, 3] [nM] | IC50 (human BRD4 bromodomain I) [nM] | IC50 [2, 4] [nM] | IC50 [2, 5] [nM] | GI50 [1, 6] [nM] | IC50 [2, 7] [nM] | Compound |
| --- | --- | --- | --- | --- | --- | --- |
| 30 to 300 | > 100 | 1 to 10 | 1 to 10 |  |  | CN1CCN(c2ccc(-c3cccc(-c4ccnc(N5CCNCC5)c4)c3O)cc2Cl)C1=O [Example 245, 1-(3-Chloro-2′-hydroxy-3′-(2-(piperazin-1-yl)pyridin-4-yl)-[1,1′-biphenyl]-4-yl)-3-methylimidazolidin-2-one] |
|  | > 100 | 1 to 10 | 1 to 10 |  |  | CC(=O)Nc1ccc(-c2cccc(-c3cccc(N4CCNCC4)c3)c2O)cc1Cl [Example 171, N-(3-chloro-2′-hydroxy-3″-(piperazin-1-yl)-[1,1′:3′,1″-terphenyl]-4-yl)acetamide] |
|  | > 100 | 10 to 100 | 10 to 100 |  |  | CC(=O)Nc1ccc(-c2cccc(-c3cc(N4CCNCC4)no3)c2O)cc1 [Example 3, N-(2′-Hydroxy-3′-(3-(piperazin-1-yl)isoxazol-5-yl)-[1,1′-biphenyl]-4-yl)acetamide] |
|  | > 100 | 10 to 100 | 10 to 100 |  |  | CC(=O)Nc1ccc(-c2cccc(-c3cccc(N4CCOCC4)c3)c2O)cc1F [Example 95, N-(3-Fluoro-2′-hydroxy-3″-morpholino-[1,1′:3′,1″-terphenyl]-4-yl)acetamide] |
|  | > 100 | 10 to 100 | 10 to 100 |  |  | CC(=O)Nc1ccc(-c2cccc(-c3cc(N4CCN(C)CC4)no3)c2O)cc1 [Example 6, N-(2′-Hydroxy-3′-(3-(4-methylpiperazin-1-yl)isoxazol-5-yl)-[1,1′-biphenyl]-4-yl)acetamide] |
| 30 to 300 |  |  | 0.01 to 1 |  |  | CN1CCC2(CC(=O)N(c3cc(-c4cc(F)cc(-c5ccc(-n6ccn(C)c6=O)c(Cl)c5)c4O)ccn3)C2)C1 (centres unmarked) [Example 712, 2-(4-(3′-chloro-5-fluoro-2-hydroxy-4′-(3-methyl-2-oxo-2,3-dihydro-1H-imidazol-1-yl)-[1,1′-biphenyl]-3-yl)pyridin-2-yl)-7-methyl-2,7-diazaspiro[4.4]nonan-3-one] |
| 0.3 to 30 |  |  | 0.01 to 1 |  |  | C[C@@H]1CN(c2cc(-c3cc(F)cc(-c4ccc(-n5ccn(C)c5=O)c(Cl)c4)c3O)cn3ncnc23)CCN1 [Example 602, (R)-1-(3-chloro-5′-fluoro-2′-hydroxy-3′-(8-(3-methylpiperazin-1-yl)-[1,2,4]triazolo[1,5-a]pyridin-6-yl)-[1,1′-biphenyl]-4-yl)-3-methyl-1H-imidazol-2(3H)-one] |
| 30 to 300 |  |  | 1 to 10 |  |  | Cn1ccn(-c2ccc(-c3cc(F)cc(-c4cc(N5CCOCC5)c5cn[nH]c5c4)c3O)cc2Cl)c1=O [Example 590, 1-(3-chloro-5′-fluoro-2′-hydroxy-3′-(4-morpholino-1H-indazol-6-yl)-[1,1′-biphenyl]-4-yl)-3-methyl-1H-imidazol-2(3H)-one] |
| 30 to 300 |  |  | 1 to 10 |  |  | Cn1ccn(-c2ccc(-c3cc(F)cc(-c4cncc(N5CC[C@@H](O)[C@H](N)C5)c4)c3O)cc2Cl)c1=O [Example 495, 1-(3′-(5-((3R,4R)-3-amino-4-hydroxypiperidin-1-yl)pyridin-3-yl)-3-chloro-5′-fluoro-2′-hydroxy-[1,1′-biphenyl]-4-yl)-3-methyl-1H-imidazol-2(3H)-one] |
| 300 to 3000 |  |  | 10 to 100 |  |  | CC(C)Oc1cc(-c2cc(F)cc(-c3ccnc(N4CCNCC4)c3)c2O)cc(Cl)c1N1CCN(C)C1=O [Example 418, 1-(3-chloro-5′-fluoro-2′-hydroxy-5-isopropoxy-3′-(2-(piperazin-1-yl)pyridin-4-yl)-[1,1′-biphenyl]-4-yl)-3-methylimidazolidin-2-one] |
| 0.3 to 30 |  |  | 0.01 to 1 |  |  | CC(C)N1CCCN(c2cc(-c3cc(F)cc(-c4ccc(-n5ccn(C)c5=O)c(Cl)c4)c3O)ccn2)CC1 [Example 678, 1-(3-chloro-5′-fluoro-2′-hydroxy-3′-(2-(4-isopropyl-1,4-diazepan-1-yl)pyridin-4-yl)-[1,1′-biphenyl]-4-yl)-3-methyl-1H-imidazol-2(3H)-one] |
| 0.3 to 30 |  |  | 0.01 to 1 |  |  | Cn1ccn(-c2ccc(-c3cc(F)cc(-c4cncc(N5CC6CNC(C6)C5)c4)c3O)cc2Cl)c1=O (centres unmarked) [Example 572] |
| 0.3 to 30 |  |  | 0.01 to 1 |  |  | C[C@@H]1CN(c2cc(-c3cc(F)cc(-c4ccc(-n5ccn(C)c5=O)c(Cl)c4)c3O)cc3cccnc23)CCN1 [Example 591, (R)-1-(3-chloro-5′-fluoro-2′-hydroxy-3′-(8-(3-methylpiperazin-1-yl)quinolin-6-yl)-[1,1′-biphenyl]-4-yl)-3-methyl-1H-imidazol-2(3H)-one] |
